Laboratory results: US10392391B2 (Vertex Pharmaceuticals Incorporated, priority 2012, dated 2019)
Like-named read-outs stand apart in the source and are kept apart here.

Biological target: ATR kinase (full-length ATR) (Homo sapiens (Human), UniProt Q13535)
Assay: ATR inhibition assay (radioactive-phosphate incorporation)
Format: biochemical
Outline: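 Ki(app) was fitted by non-linear regression to background-corrected initial rates. Full-length ATR (5 nM) phosphorylated 800 μM peptide using 10 μM [γ-33P]ATP at 25° C in Tris/HCl pH 7.5 buffer with MgCl2, DTT and 7% DMSO. After 10-minute compound pre-incubation and 24-hour reaction, phosphocellulose filters were scintillation counted.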

[1] = Ki(app), 5 nM full-length ATR, 10 μM ATP, 25° C.

ATR kinase (full-length ATR), sequence (Q13535 whole entry): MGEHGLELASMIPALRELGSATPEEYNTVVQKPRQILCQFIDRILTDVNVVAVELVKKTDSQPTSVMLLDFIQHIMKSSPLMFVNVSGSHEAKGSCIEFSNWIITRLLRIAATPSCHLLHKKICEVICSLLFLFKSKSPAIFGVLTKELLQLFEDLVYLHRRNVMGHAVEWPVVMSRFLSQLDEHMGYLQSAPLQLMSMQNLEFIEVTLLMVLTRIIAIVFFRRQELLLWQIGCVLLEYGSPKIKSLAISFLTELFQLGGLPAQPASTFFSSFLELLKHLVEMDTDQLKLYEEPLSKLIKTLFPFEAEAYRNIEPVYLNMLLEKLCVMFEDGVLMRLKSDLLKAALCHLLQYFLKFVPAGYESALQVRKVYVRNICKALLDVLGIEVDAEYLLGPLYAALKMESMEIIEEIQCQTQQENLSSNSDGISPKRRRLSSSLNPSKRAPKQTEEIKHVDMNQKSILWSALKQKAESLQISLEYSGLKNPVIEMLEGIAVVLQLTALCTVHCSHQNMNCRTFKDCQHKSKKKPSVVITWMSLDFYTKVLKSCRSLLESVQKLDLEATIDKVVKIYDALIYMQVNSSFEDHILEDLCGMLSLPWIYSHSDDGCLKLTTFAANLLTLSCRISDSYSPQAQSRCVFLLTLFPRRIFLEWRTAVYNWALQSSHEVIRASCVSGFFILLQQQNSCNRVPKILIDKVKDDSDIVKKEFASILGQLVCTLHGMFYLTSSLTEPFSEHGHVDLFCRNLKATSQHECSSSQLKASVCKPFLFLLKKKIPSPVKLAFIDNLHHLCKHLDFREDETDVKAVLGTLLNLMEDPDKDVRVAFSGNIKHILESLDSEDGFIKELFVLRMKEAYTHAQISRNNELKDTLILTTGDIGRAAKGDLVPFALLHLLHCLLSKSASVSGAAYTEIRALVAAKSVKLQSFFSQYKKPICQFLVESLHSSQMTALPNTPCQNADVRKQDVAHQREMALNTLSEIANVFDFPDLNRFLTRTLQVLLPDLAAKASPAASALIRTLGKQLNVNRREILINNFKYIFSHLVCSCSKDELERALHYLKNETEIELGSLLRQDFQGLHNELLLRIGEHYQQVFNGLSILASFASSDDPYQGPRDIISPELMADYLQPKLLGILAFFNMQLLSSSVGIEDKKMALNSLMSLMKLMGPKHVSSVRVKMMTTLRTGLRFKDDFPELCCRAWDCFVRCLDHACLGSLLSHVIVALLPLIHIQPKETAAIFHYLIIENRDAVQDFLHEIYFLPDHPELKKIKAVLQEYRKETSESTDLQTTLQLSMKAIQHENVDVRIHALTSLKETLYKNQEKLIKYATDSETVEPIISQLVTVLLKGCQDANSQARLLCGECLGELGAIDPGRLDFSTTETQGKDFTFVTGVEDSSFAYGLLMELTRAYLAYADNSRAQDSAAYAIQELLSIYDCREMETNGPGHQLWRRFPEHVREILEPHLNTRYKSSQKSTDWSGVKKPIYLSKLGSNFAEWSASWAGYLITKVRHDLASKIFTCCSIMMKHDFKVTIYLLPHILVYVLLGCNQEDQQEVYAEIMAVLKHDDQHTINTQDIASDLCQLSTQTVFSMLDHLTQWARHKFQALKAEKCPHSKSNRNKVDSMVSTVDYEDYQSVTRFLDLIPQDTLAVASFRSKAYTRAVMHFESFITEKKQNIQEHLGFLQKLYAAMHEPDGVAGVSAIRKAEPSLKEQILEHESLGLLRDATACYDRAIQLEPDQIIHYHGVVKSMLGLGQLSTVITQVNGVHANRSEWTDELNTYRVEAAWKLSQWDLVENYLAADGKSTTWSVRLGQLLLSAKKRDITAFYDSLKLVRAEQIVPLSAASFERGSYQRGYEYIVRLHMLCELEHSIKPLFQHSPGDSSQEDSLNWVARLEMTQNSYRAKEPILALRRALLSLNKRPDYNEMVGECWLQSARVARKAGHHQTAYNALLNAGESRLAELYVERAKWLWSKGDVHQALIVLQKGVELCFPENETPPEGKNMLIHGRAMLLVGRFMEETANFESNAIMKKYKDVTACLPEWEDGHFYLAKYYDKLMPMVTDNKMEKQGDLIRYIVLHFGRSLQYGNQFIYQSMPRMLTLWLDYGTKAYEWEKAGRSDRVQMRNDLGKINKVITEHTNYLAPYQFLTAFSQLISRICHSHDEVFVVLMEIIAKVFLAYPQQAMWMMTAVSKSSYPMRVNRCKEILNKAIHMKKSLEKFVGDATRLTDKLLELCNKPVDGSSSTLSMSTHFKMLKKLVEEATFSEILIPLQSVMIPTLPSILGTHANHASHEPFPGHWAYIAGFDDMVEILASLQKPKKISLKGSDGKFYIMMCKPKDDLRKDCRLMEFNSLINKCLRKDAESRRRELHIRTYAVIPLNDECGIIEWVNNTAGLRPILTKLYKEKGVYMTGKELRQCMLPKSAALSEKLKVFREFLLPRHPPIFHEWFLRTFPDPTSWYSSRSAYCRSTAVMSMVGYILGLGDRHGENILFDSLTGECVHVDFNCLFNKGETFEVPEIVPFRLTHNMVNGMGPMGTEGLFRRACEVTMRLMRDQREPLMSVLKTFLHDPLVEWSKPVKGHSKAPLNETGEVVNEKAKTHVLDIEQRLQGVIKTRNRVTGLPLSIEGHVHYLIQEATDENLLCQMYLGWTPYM

Row | SMILES | Ki [1] | Ki
1 | Nc1nn2cc(F)cnc2c1C(=O)Nc1cnccc1N1CCN2CCC1CC2 [I-N-18, N-(4-(1,4-diazabicyclo[3.2.2]nonan-4-yl)pyridin-3-yl)-2-amino-6-fluoropyrazolo[1,5-a]pyrimidine-3-carboxamide] | 0.01 to 1 µM | –
2 | N#CCc1cnc2c(C(=O)Nc3cnccc3OC3CCC3)c(N)nn2c1 [I-O-36, 2-amino-6-(cyanomethyl)-N-(4-cyclobutoxypyridin-3-yl)pyrazolo[1,5-a]pyrimidine-3-carboxamide] | < 0.01 µM | –
3 | CN1CCC(c2ccncc2NC(=O)c2c(N)nn3cc(F)cnc23)CC1 [I-C-1, 2-amino-6-fluoro-N-(4-(1-methylpiperidin-4-yl)pyridin-3-yl)pyrazolo[1,5-a]pyrimidine-3-carboxamide] | – | 1 to 5 µM
4 | CN1CCC(Oc2c(Cl)cncc2NC(=O)c2c(N)nn3cc(Cl)cnc23)CC1 [I-O-46, 2-amino-6-chloro-N-(5-chloro-4-((1-methylpiperidin-4-yl)oxy)pyridin-3-yl)pyrazolo[1,5-a]pyrimidine-3-carboxamide] | – | 1 to 5 µM
5 | CN1CCN(C(=O)C2CCN(c3c(F)cncc3NC(=O)c3c(N)nn4cc(F)cnc34)C2)CC1 (stereo not shown) [I-N-191, 2-amino-6-fluoro-N-(5-fluoro-4-(3-(4-methylpiperazine-1-carbonyl)pyrrolidin-1-yl)pyridin-3-yl)pyrazolo[1,5-a]pyrimidine-3-carboxamide] | – | 1 to 5 µM
6 | Nc1nn2cc(F)cnc2c1C(=O)Nc1cnccc1N1CCCCCC1 [I-N-264, 2-amino-N-(4-(azepan-1-yl)pyridin-3-yl)-6-fluoropyrazolo[1,5-a]pyrimidine-3-carboxamide] | – | 1 to 5 µM
7 | Nc1nn2cc(F)cnc2c1C(=O)Nc1cncc(Cl)c1N1CCC(C(=O)N2CCN3CCC2CC3)CC1 [I-G-66, N-(4-(4-(1,4-diazabicyclo[3.2.2]nonane-4-carbonyl)piperidin-1-yl)-5-chloropyridin-3-yl)-2-amino-6-fluoropyrazolo[1,5-a]pyrimidine-3-carboxamide] | 0.01 to 1 µM | –
8 | Nc1nn2cc(F)cnc2c1C(=O)Nc1cnccc1N1CCC(C(=O)N2CC(F)(F)C2)CC1 [I-G-80, 2-amino-N-(4-(4-(3,3-difluoroazetidine-1-carbonyl)piperidin-1-yl)pyridin-3-yl)-6-fluoropyrazolo[1,5-a]pyrimidine-3-carboxamide] | 0.01 to 1 µM | –
9 | Nc1nn2cc(F)cnc2c1C(=O)Nc1cncc(F)c1N1CCC(C(=O)N2CCN3CC[C@@H]2C3)CC1 [I-G-71, N-(4-(4-((5R)-1,4-diazabicyclo[3.2.1]octane-4-carbonyl)piperidin-1-yl)-5-fluoropyridin-3-yl)-2-amino-6-fluoropyrazolo[1,5-a]pyrimidine-3-carboxamide] | 0.01 to 1 µM | –
10 | N#CCc1cnc2c(C(=O)Nc3cnccc3O[C@@H]3CCNC3)c(N)nn2c1 [I-O-87, (R)-2-amino-6-(cyanomethyl)-N-(4-(pyrrolidin-3-yloxy)pyridin-3-yl)pyrazolo[1,5-a]pyrimidine-3-carboxamide] | 0.01 to 1 µM | –
11 | COC1CN(C2CCN(c3ccncc3NC(=O)c3c(N)nn4cc(Cl)cnc34)CC2)C1 [I-N-107, 2-amino-6-chloro-N-(4-(4-(3-methoxyazetidin-1-yl)piperidin-1-yl)pyridin-3-yl)pyrazolo[1,5-a]pyrimidine-3-carboxamide] | 0.01 to 1 µM | –
12 | CN1CCC(C(=O)N2CCN(c3c(F)cncc3NC(=O)c3c(N)nn4cc(F)cnc34)CC2)C1 (stereo not shown) [I-N-156, 2-amino-6-fluoro-N-(5-fluoro-4-(4-(1-methylpyrrolidine-3-carbonyl)piperazin-1-yl)pyridin-3-yl)pyrazolo[1,5-a]pyrimidine-3-carboxamide] | 0.01 to 1 µM | –
13 | Nc1nn2cc(Cl)cnc2c1C(=O)Nc1cnccc1N1CCC(N2CC(F)(F)C2)CC1 [I-N-108, 2-amino-6-chloro-N-(4-(4-(3,3-difluoroazetidin-1-yl)piperidin-1-yl)pyridin-3-yl)pyrazolo[1,5-a]pyrimidine-3-carboxamide] | 0.01 to 1 µM | –
14 | CN(C)C1CCCN(c2ccncc2NC(=O)c2c(N)nn3cc(Cl)cnc23)C1 (stereo not shown) [I-N-40, 2-amino-6-chloro-N-(4-(3-(dimethylamino)piperidin-1-yl)pyridin-3-yl)pyrazolo[1,5-a]pyrimidine-3-carboxamide] | 0.01 to 1 µM | –
15 | CN1CCC(Oc2ccncc2NC(=O)c2c(N)nn3cc(F)cnc23)CC1 [I-O-12, 2-amino-6-fluoro-N-(4-((1-methylpiperidin-4-yl)oxy)pyridin-3-yl)pyrazolo[1,5-a]pyrimidine-3-carboxamide] | 0.01 to 1 µM | –
16 | Nc1nn2cc(F)cnc2c1C(=O)Nc1cncc(F)c1N1CCN(S(=O)(=O)C2CC2)CC1 [I-N-159, 2-amino-N-(4-(4-(cyclopropylsulfonyl)piperazin-1-yl)-5-fluoropyridin-3-yl)-6-fluoropyrazolo[1,5-a]pyrimidine-3-carboxamide] | 0.01 to 1 µM | –
17 | CN1CCOC2(CCN(c3ccncc3NC(=O)c3c(N)nn4cc(F)cnc34)CC2)C1 [I-N-183, 2-amino-6-fluoro-N-(4-(4-methyl-1-oxa-4,9-diazaspiro[5.5]undecan-9-yl)pyridin-3-yl)pyrazolo[1,5-a]pyrimidine-3-carboxamide] | 0.01 to 1 µM | –

Now from value to molecule:

Row | Ki [1] | Ki | SMILES
18 | < 0.01 µM | – | N#CCc1cnc2c(C(=O)Nc3cnccc3N3CCCCC3)c(N)nn2c1 [I-N-84, 2-amino-6-(cyanomethyl)-N-(4-(piperidin-1-yl)pyridin-3-yl)pyrazolo[1,5-a]pyrimidine-3-carboxamide]
19 | 0.01 to 1 µM | – | Nc1nn2cc(F)cnc2c1C(=O)Nc1cncc(F)c1N1CCC(C(=O)N2CC3CNCC3C2)CC1 (stereo not shown) [I-G-51, 2-amino-6-fluoro-N-(5-fluoro-4-(4-(octahydropyrrolo[3,4-c]pyrrole-2-carbonyl)piperidin-1-yl)pyridin-3-yl)pyrazolo[1,5-a]pyrimidine-3-carboxamide]
20 | 0.01 to 1 µM | – | Nc1nn2cc(Cl)cnc2c1C(=O)Nc1cnccc1OC1CC2(CNC2)C1 [I-O-72, N-(4-(2-azaspiro[3.3]heptan-6-yloxy)pyridin-3-yl)-2-amino-6-chloropyrazolo[1,5-a]pyrimidine-3-carboxamide]
21 | 0.01 to 1 µM | – | CS(=O)(=O)C1CCN(c2ccncc2NC(=O)c2c(N)nn3cc(F)cnc23)CC1 [I-N-190, 2-amino-6-fluoro-N-(4-(4-(methylsulfonyl)piperidin-1-yl)pyridin-3-yl)pyrazolo[1,5-a]pyrimidine-3-carboxamide]
22 | 0.01 to 1 µM | – | CN1CC(C(=O)N2CCN(c3c(F)cncc3NC(=O)c3c(N)nn4cc(F)cnc34)CC2)C1 [I-N-194]
23 | 0.01 to 1 µM | – | COc1ccncc1NC(=O)c1c(N)nn2cc(F)cnc12 [I-O-4, 2-amino-6-fluoro-N-(4-methoxypyridin-3-yl)pyrazolo[1,5-a]pyrimidine-3-carboxamide]
24 | 0.01 to 1 µM | – | CN(C)S(=O)(=O)C1CCN(c2c(F)cncc2NC(=O)c2c(N)nn3cc(F)cnc23)CC1 [I-N-146, 2-amino-N-(4-(4-(N,N-dimethylsulfamoyl)piperidin-1-yl)-5-fluoropyridin-3-yl)-6-fluoropyrazolo[1,5-a]pyrimidine-3-carboxamide]
25 | 0.01 to 1 µM | – | CN(C)C(=O)[C@H]1CC[C@@H](Oc2ccncc2NC(=O)c2c(N)nn3cc(F)cnc23)CC1 [I-O-17, 2-amino-N-(4-(((1s,4s)-4-(dimethylcarbamoyl)cyclohexyl)oxy)pyridin-3-yl)-6-fluoropyrazolo[1,5-a]pyrimidine-3-carboxamide]
26 | 0.01 to 1 µM | – | Nc1nn2cc(F)cnc2c1C(=O)Nc1cncc(F)c1N1CCN(C(=O)CN2CCC2)CC1 [I-N-160, 2-amino-N-(4-(4-(2-(azetidin-1-yl)acetyl)piperazin-1-yl)-5-fluoropyridin-3-yl)-6-fluoropyrazolo[1,5-a]pyrimidine-3-carboxamide]
27 | 0.01 to 1 µM | – | Nc1nn2cc(F)cnc2c1C(=O)Nc1cnccc1N1CCN([C@H]2CCOC2)CC1 [I-N-12, (S)-2-amino-6-fluoro-N-(4-(4-(tetrahydrofuran-3-yl)piperazin-1-yl)pyridin-3-yl)pyrazolo[1,5-a]pyrimidine-3-carboxamide]
28 | 0.01 to 1 µM | – | N#CC1(c2cnc3c(C(=O)Nc4cncc(F)c4N4CCN(C5COC5)CC4)c(N)nn3c2)CC1 [I-N-180, 2-amino-6-(1-cyanocyclopropyl)-N-(5-fluoro-4-(4-(oxetan-3-yl)piperazin-1-yl)pyridin-3-yl)pyrazolo[1,5-a]pyrimidine-3-carboxamide]
29 | 0.01 to 1 µM | – | Cc1nc(O[C@@H]2CCN(C)C2)ccc1-c1ccncc1NC(=O)c1c(N)nn2cc(F)cnc12 [I-C-41, (R)-2-amino-6-fluoro-N-(2-methyl-6-((1-methylpyrrolidin-3-yl)oxy)-[3,4′-bipyridin]-3′-yl)pyrazolo[1,5-a]pyrimidine-3-carboxamide]
30 | 0.01 to 1 µM | – | CN1CCN2CCN(c3ccncc3NC(=O)c3c(N)nn4cc(Cl)cnc34)CC2C1 (stereo not shown) [I-N-61, 2-amino-6-chloro-N-(4-(8-methylhexahydro-1H-pyrazino[1,2-a]pyrazin-2(6H)-yl)pyridin-3-yl)pyrazolo[1,5-a]pyrimidine-3-carboxamide]
31 | 0.01 to 1 µM | – | N#CC1CN(C(=O)C2CCN(c3ccncc3NC(=O)c3c(N)nn4cc(F)cnc34)CC2)C1 [I-G-81, 2-amino-N-(4-(4-(3-cyanoazetidine-1-carbonyl)piperidin-1-yl)pyridin-3-yl)-6-fluoropyrazolo[1,5-a]pyrimidine-3-carboxamide]
32 | 0.01 to 1 µM | – | Cn1cncc1-c1ccncc1NC(=O)c1c(N)nn2cc(F)cnc12 [I-C-56, 2-amino-6-fluoro-N-(4-(1-methyl-1H-imidazol-5-yl)pyridin-3-yl)pyrazolo[1,5-a]pyrimidine-3-carboxamide]
33 | 0.01 to 1 µM | – | COCCN1CCN(c2ccncc2NC(=O)c2c(N)nn3cc(F)cnc23)CC1 [I-N-22, 2-amino-6-fluoro-N-(4-(4-(2-methoxyethyl)piperazin-1-yl)pyridin-3-yl)pyrazolo[1,5-a]pyrimidine-3-carboxamide]
34 | < 0.01 µM | – | N#CCc1cnc2c(C(=O)Nc3cnccc3OC3CNC3)c(N)nn2c1 [I-O-82, 2-amino-N-(4-(azetidin-3-yloxy)pyridin-3-yl)-6-(cyanomethyl)pyrazolo[1,5-a]pyrimidine-3-carboxamide]
